Reference: patent publication US20090221610A1, “Compositions and Methods for Treating Cognitive Disorders” (Yale University, priority 2006, published 2009)
“Also recorded” adds a separate entry of the source.

Assays:
rat prefrontal cortex [1] = experiment: Spatial delayed alternation task in a T maze after intra-PFC infusion; type: in vivo
Protocol: Rats (n=5) were tested on the spatial delayed alternation task in a T maze, a classical test of prefrontal cortical function in rodents (Larsen and Divac, Physiolog Psychol, 6:15-17, 1978). Rats were trained on the task, and then implanted with cannula aimed at the prelimbic prefrontal cortex as described in (Ramos, et al., Neuron, 40:835-845, 2003). Following recovery from surgery, rats were infused with saline (0.5 μl), the Ih channel blocker ZD7288 (0.0001 μg/0.5 μl), the cAMP analog […]), or a combination of ZD7288 (0.0001 μ[…] (0.21 nmol). There was at least one week washout between drug treatments, and a within subjects comparison was performed (2 way analysis of variance with repeated measures with user defined contrasts). […] Male Sprague Dawley rats (240-260 g; Taconic, Germantown, N.Y.) were trained on the delayed alternation task as described in Ramos et al., 2003. Guide cannula were implanted dorsal in prelimbic PFC (AP: +3.2 mm; ML: ±0.75 mm; DV: -4.2 mm). For infusions, needles reached to 4.5 mm DV; infused at 0.25 μL/min for 2 min. Drug or vehicle was administered in a counterbalanced order with at least 1 week between infusions. […] The experimenter was blind to treatment.

PFC neurons = experiment: Single neuron recording and iontophoresis in monkeys performing a spatial WM (ODR) task; type: in vivo, rhesus monkeys; settings: for Reversal of the enhancing effects of guanfacine on delay-related activity: co-iontophoresis with guanfacine (yohimbine 15 nA; Sp-cAMPS 10 nA); for Reversal: number of neurons / Reversal: percent of neurons / No Reversal: number of neurons / No Reversal: percent of neurons: co-iontophoresis; for Decreased: percent of neurons, spatial delay-related firing / Increased: percent of neurons, spatial delay-related firing / Un-changed: number of neurons, spatial delay-related firing / Un-changed: percent of neurons, spatial delay-related firing / Increased: number of neurons, spatial delay-related firing / Decreased: number of neurons, spatial delay-related firing / Increased: number of neurons, spatial delay-related firing of PFC neurons: iontophoresis; for Increased: number of neurons, spatial delay-related firing: no dose in table (text: Sp-cAMPS 10 nA, Rp-cAMPS 40-50 nA); for Increased: number of neurons, spatial delay-related firing of PFC neurons: low dose 5-15 nA (text: ZD7288 10 nA)
Protocol: Studies were performed on 4 adult male rhesus monkeys trained on the spatial ODR task (FIG. 3). Iontophoretic electrodes, neuronal recording and drug delivery were as described in (Wang et al., 2004) and also are provided in the Supplemental Material. Guanfacine, yohimbine, ZD7288(Tocris, Ellisville, Mo.) and etazolate (Sigma, St. Louis, Mo.) were dissolved at 0.01M in triple-distilled water (adjusted with HCl to pH 3.5-4.0). Sp-cAMP and Rp-cAMP (Sigma) were dissolved at 0.01M in triple-distilled water (adjusted with NaOH to pH 9). Two-way ANOVA was used to examine the spatial tuned task-related activity with regard to: (1) different periods of the task (cue, delay, response vs. fixation) and (2) different cue locations. One-way ANOVAs were employed to assess the effect of the drug application on cells displaying delay-related activity. Monkeys performed an oculomotor spatial delayed response (ODR) task, illustrated in FIG. 3A. The ODR task requires the monkey to make a memory-guided […] to a visuo-spatial target. Stimulus position was randomized over trials to ensure use of WM. Neurons were recorded from area 46 of the dorsolateral PFC (FIG. 3B) as the monkey performed the task. […] In the present study, 128 neurons with delay-related mnemonic activity were isolated and subjected to iontophoretic application of pharmacological agents See Table 1, below summarizing the effects of drugs (Table 1) and their reversal (Table 2) on PFC neuronal response.

rat prefrontal cortex [2] = experiment: Spatial delayed alternation task in a T maze after intra-PFC infusion; type: in vivo; remark: listed apart in the source
ferret PFC slices = experiment: In vitro extracellular multiple unit and intracellular recording from PFC slices; type: cell-based; settings: bath application 20-50 micromolar
Protocol: Methods for extracellular multiple unit and intracellular recording in ferret PFC slices have been detailed elsewhere (Shu et al., 2003). Slices (0.4 mm) from 2-4 month old ferret PFC were maintained in either an interface or submerged chamber (35-36° C.) in a slice solution containing (in mM): NaCl, 126; KCl, 3.1; MgSO4, 1; NaHPO4, 1.25; CaCl2, 1; NaHCO3, 26; dextrose, 10, and aerated with 95% O2, 5% CO2 to a final pH of 7.4. Simultaneous extracellular multiple unit and intracellular recordings were performed in layer 5 with the electrodes approximately […] of one another. Intracellular micropipettes contained 2 M potassium acetate, while whole cell recording pipettes contained KGluconate 140, KCl 3, MgCl2 2, Na2ATP 2, HEPES 10, and EGTA 0.2. The cellular and network consequences of modulation of HCN channels was examined with intracellular and whole cell recordings from layer 5 pyramidal cells simultaneously with extracellular multiple unit recordings in the ferret PFC in vitro (n=55, see FIG. 6G). Under normal conditions, these slices generate Up and Down states, consisting of repeating periods of recurrent network activity (Shu et al., 2003).

[3] = iontophoresis 10 nA, example neuron
[4] = no dose in table (yohimbine 15 nA, Sp-cAMPS 10 nA, etazolate 25 nA)

Row | SMILES | Reversal of the enhancing effects of guanfacine on delay-related activity (PFC neurons) | Reversal: number of neurons (PFC neurons; reversal of guanfacine) | Reversal: percent of neurons (PFC neurons; reversal of guanfacine) | Effect on delay-related firing for the preferred direction (PFC neurons; [3]) | Decreased: percent of neurons, spatial delay-related firing (PFC neurons; no dose in table) | Increased: percent of neurons, spatial delay-related firing (PFC neurons; no dose in table) | Un-changed: number of neurons, spatial delay-related firing (PFC neurons; no dose in table) | Un-changed: percent of neurons, spatial delay-related firing (PFC neurons; no dose in table) [%] | Increased: number of neurons, spatial delay-related firing (PFC neurons) | Decreased: number of neurons, spatial delay-related firing (PFC neurons; [4]) | Increased: percent of neurons, spatial delay-related firing (PFC neurons; 5-15 nA) | Un-changed: number of neurons, spatial delay-related firing (PFC neurons; 5-15 nA) | Un-changed: percent of neurons, spatial delay-related firing (PFC neurons; 5-15 nA) [%] | Decreased: percent of neurons, spatial delay-related firing (PFC neurons; 20-50 nA) | Decreased: number of neurons, spatial delay-related firing (PFC neurons; high dose 20-50 nA) | Increased: number of neurons, spatial delay-related firing of PFC neurons (PFC neurons) | also measured
1 | Nc1ncnc2c1ncn2[C@@H]1O[C@@H]2COP(O)(=S)O[C@H]2[C@H]1O (stereo partly drawn) [Sp-cAMP] | significantly reversed | 6 | (67%) | significantly decreased | (48%) | (33%) | 5 | 19 | 9 | 13 |  |  |  |  |  |  | Effect of co-infusion on the ZD7288 improvement of working memory (rat prefrontal cortex [1]; co-infusion 0.21 nmol with ZD7288 0.0001 μg, listed as Sp-cAMPS): significantly reversed; also recorded: blocked; also recorded: significantly reduced; Spatial working memory performance compared to saline (rat prefrontal cortex [1]; intra-PFC infusion 0.21 nmol/0.5 μl alone): no effect on its own; Reversal: number of neurons (PFC neurons; reversal of Rp-cAMP): 6; Reversal: percent of neurons (PFC neurons; reversal of Rp-cAMP): (100%); No Reversal: number of neurons (PFC neurons; reversal of guanfacine): 3; No Reversal: percent of neurons (PFC neurons; reversal of guanfacine): 33%; Increased: number of neurons, spatial delay-related firing (PFC neurons; listed as Sp-cAMPS): 9; Un-changed: number of neurons, spatial delay-related firing (PFC neurons; no dose in table, listed as Sp-cAMPS): 5; Reversal of the enhancing effect of Rp-cAMPS on delay-related firing (PFC neurons; subsequent co-iontophoresis with Rp-cAMPS): reversed; Effect of co-infusion on the guanfacine effects on working memory (rat prefrontal cortex [2]; aged rats, co-infusion with guanfacine): reversed
2 | CCOC(=O)c1cnc2c(cnn2CC)c1NN=C(C)C [Etazolate] |  |  |  |  | (83%) |  | 2 | 17 |  | 10 |  |  |  |  |  |  | 
3 | Nc1ncnc2c1ncn2[C@@H]1O[C@@H]2COP(O)(=S)O[C@H]2[C@H]1O (stereo partly drawn) [Rp-cAMP] |  |  |  |  |  | (67%) | 4 | 33 | 8 |  |  |  |  |  |  |  | Effect on delay-related firing for the preferred direction (PFC neurons; iontophoresis 40-50 nA): specifically increased; Increased: number of neurons, spatial delay-related firing (PFC neurons; listed as Rp-cAMPS): 8
4 | CCN(c1ccccc1)c1cc(NC)[n+](C)c(C)n1.[Cl-] [ZD7288] |  |  |  | further enhanced |  |  |  |  |  |  | (70%) | 8 | 30 | (100%) | 10 | 19 | Spatial working memory performance (percent correct, delayed alternation) compared to saline (rat prefrontal cortex [1]; intra-PFC infusion 0.0001 μg/0.5 μl, n=5): significantly improved; Reversal of the reduction in delay-related firing induced by etazolate (PFC neurons; co-iontophoresis with etazolate): fully reversed; Reversal of the yohimbine suppression of delay-related activity (PFC neurons; co-iontophoresis with yohimbine (15 nA)): significantly reversed; No Reversal: number of neurons (PFC neurons; reversal of etazolate): 2; No Reversal: percent of neurons (PFC neurons; reversal of etazolate): 25%; Reversal: number of neurons (PFC neurons; reversal of etazolate): 6; Reversal: percent of neurons (PFC neurons; reversal of etazolate): (75%); No Reversal: number of neurons (PFC neurons; reversal of yohimbine): 2; No Reversal: percent of neurons (PFC neurons; reversal of yohimbine): 31%; Reversal: number of neurons (PFC neurons; reversal of yohimbine): 7; Reversal: percent of neurons (PFC neurons; reversal of yohimbine): (71%); Reversal: number of neurons (PFC neurons; reversal of yohimbine, listed as ZD 7288): 5; Effect on delay-related firing for the preferred direction (PFC neurons; iontophoresis 5 nA, example neuron): significantly increased; Effect on delay-related firing (PFC neurons; iontophoresis 40 nA, highest concentration): decreased rather than increased firing; Number of action potentials generated by a depolarizing current pulse (ferret PFC slices): increase; Up-state action potential discharge (ferret PFC slices; from 1.8±1.7 Hz, n=9): 9.2±4.9 Hz; Apparent input resistance (ferret PFC slices; from 18.6±7.5, n=10): 36±10.8 Mohms; Duration of the recurrent network activity of the Up state (ferret PFC slices; from an average of 0.84 (±0.25) before): 4.1 (±1.3) sec; Increase in duration of the recurrent network activity of the Up state (ferret PFC slices; n=10): ~500%; Membrane potential of layer 5 pyramidal neurons (ferret PFC slices; n=12): progressive hyperpolarization
5 | NC(N)=NC(=O)Cc1c(Cl)cccc1Cl [Guanfacine, N-(diaminomethylidene)-2-(2,6-dichlorophenyl)acetamide] |  |  |  | substantially increased; also recorded: significantly increased |  |  |  |  |  |  | (80%) | 7 | 20 | (100%) | 9 | 28 | Effect on delay-related firing (PFC neurons; iontophoresis 50 nA, higher dose): did not have enhancing effects; Spatial working memory performance (percent correct, delayed alternation) (rat prefrontal cortex [2]; aged rats (n=9), prefrontal infusion 0.0001 μg): significantly different than saline
6 | COC(=O)[C@@H]1[C@H]2C[C@H]3c4[nH]c5ccccc5c4CCN3C[C@@H]2CC[C@@H]1O [Yohimbine] | reversed | 6 | (100%) |  | (100%) |  |  |  |  | 15 |  |  |  |  |  |  | Effect on delay-related activity for the preferred direction (PFC neurons; iontophoresis 15 nA): dramatically suppressed
